Measurements reported in US20130177610A1, “NANO-METALLIC ALLOY DELIVERY SYSTEM FOR TREATMENT OF INFECTED CELLS AND LEGIONS” (UNIVERSITY OF NORTH CAROLINA AT GREENSBORO, priority 2008, published 2013).

System: S. Aureus in osteoblast cells
Assay: Confocal microscopy live/dead staining (SYTO 9 / propidium iodide) of infected osteoblasts
Format: cell-based, Staphylococcus aureus
Settings: gentamycine alone, FIG. 6C
Experimental: Confocal microscopy provided the evidence for intracellular bacteria killing. Osteoblast cells were cultured on 18 mm cover slips in a six well plate. Cells were treated with nanoparticles 1 ug/mL. The stain used was from invitrogen (L-7002) with two types of Dyes, SYTO 9 dye, 3,34 mM (Component A), 300 μL solution in DMSO and Propidium iodide PI, 20 mM (Component B), 300 μL solution in DMSO. The plates were incubated in the dark for 15 minutes after which the coverslips with growing co-cultured cells were gently removed and were placed on a glass slide containing 50 μL of 10%A glycerol with cells lying between the cover slip and the glass slide. The slide was observed under a confocal microscope using bandpass filters for red and green color. Images were obtained at different working distances and were superimposed by an Olympus CCD camera software to get images with dual color. […] Gentamycine is an antibiotic that is not capable of penetrating the bone cells membrane.

gentamycine
dead bacteria (red) in infected osteoblast cells, confocal image: no significant numbers of dead bacteria
